This note sets out measurements from patent publication US20220265759A1, “COMPOSITION AND METHOD FOR PROMOTING WOUND HEALING” (THE BOARD OF TRUSTEES OF THE UNIVERSITY OF ILLIOIS, priority 2019, published 2022).

The test system of data set [1] is CCL28, IL-6, TNF-α, IL-1β, CCR10, VEGF, IL-13, IL-4, eNOS, CD31, Flk-1, VE-cadherin. In words: ELISA and real-time RT-PCR of inflammatory factors and EC markers in db/db mouse wounds. It is filed as in vivo, db/db mice. On the procedure:
Real-Time RT-PCR. Total cellular RNA from mouse skin wounds was extracted using nucleic acid extraction reagent sold under the tradename TRIZOL®. mRNA expression of different genes was examined by real-time RT-PCR that employed a SYBR Green PCR mix. Relative gene expression was determined by the ΔΔCt method based on GAPDH levels as described previously (Chen, et al. (2013) J. Immunol. 190:5256-5266).
ELISA Measurement. Mouse skin wounds were collected, lysed, and prepared for ELISA measurement of mouse CCL28 and IL-6 according to manufacturer's instructions.
It was investigated whether topical application of Myr-CBD7 affects these factors in db/db mice known to play important roles in the healing processes. Mouse wounds on day 3 (Inflammation Phase) and day 12 (Proliferation Phase) were collected and inflammatory factor levels were determined by ELISA and real-time RT-PCR.
On day 12 after Myr-CBD7 treatment, elevated levels of eNOS/NO were observed as well as enhanced angiogenesis in mouse wounds. Furthermore, Myr-CBD7 treatment lead to elevated levels of VEGF, anti-inflammatory cytokines IL-13 and IL-4 (M2 markers), as well as EC markers eNOS, CD31, Flk-1 and VE-cadherin in mouse wounds.
(An ELISA detects its analyte on a solid surface through an enzyme-linked reagent.)

Data set [2] relates to eNOS. Put plainly: eNOS expression in db/db mouse wounds (western blot). It is filed as in vivo, db/db mice. Conditions: day 12. On the procedure:
(§1) Immunoblot and Co-Immunoprecipitation (Co-IP). After serum starvation, inhibitors were added 45 minutes prior to stimulation for indicated times at 37° C., and cells were then collected and lysed for western blot analysis. After probing for p-eNOS (Ser1177), p-p85 (Tyr458), p-Src (Tyr 416), and p-ERK (T202/Y204), the same blots were stripped and re-probed for total proteins mentioned above. For detection of CCL28-induced protein levels of β-catenin and Bcl-2, near-confluent endothelial cells were incubated with 500 ng/ml CCL28 for 24 hours in EGM-2 medium containing 1% FBS.
Two 8 mm full thickness excisional wounds were made on the dorsal skin of diabetic db/db mice and then 50 μl of 50 μM Myr-CBD7 peptide was topically applied. […] Reduced CCR10-eNOS interaction was also observed in the mouse wounds following treatment with Myr-CBD7 peptide as determined by Co-IP (FIG. 6).
(In general: A western blot detects proteins with antibodies after separation by electrophoresis.)

The subject of data set [3] is eNOS. In words: Immunoblot of eNOS phosphorylation in endothelial cells. In kind it is cell-based, human. Conditions: in presence of peptide. On the procedure:
as §1

Data set [4] has as its target T1, CCR10-eNOS interaction (Mus musculus, UniProt Q9JL21).
T1 construct: cells or mouse wounds were collected after treatment, and lysed in 2% ODG in Tris buffer; tissue Jackson Laboratory; host or cells: dorsal skin wounds of WT C57BL/6 or db/db mice
T1 sequence (Q9JL21 1-362): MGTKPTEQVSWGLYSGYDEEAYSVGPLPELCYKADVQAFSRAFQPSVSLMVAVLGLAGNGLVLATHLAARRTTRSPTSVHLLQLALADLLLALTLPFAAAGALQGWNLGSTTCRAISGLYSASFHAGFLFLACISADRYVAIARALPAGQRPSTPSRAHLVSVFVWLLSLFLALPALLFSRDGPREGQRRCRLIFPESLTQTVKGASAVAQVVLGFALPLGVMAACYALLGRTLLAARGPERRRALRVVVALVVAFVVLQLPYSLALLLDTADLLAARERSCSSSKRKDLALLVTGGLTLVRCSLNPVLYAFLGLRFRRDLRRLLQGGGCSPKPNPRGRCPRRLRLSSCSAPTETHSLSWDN
In words: Co-IP of CCR10-eNOS interaction in WT mouse wounds. In kind it is in vivo, WT C57BL/6 mice. Conditions: day 7, 50 μM. The text has this: (§2) Co-IP Experiments, cells or mouse wounds were collected after treatment, and lysed in 2% ODG in Tris buffer. The homogenates were further prepared for Co-IP experiments as described in the art (Chen, et al. (2018) Mol. Biol. Cell 29(10):1190-1202; Chen, et al. (2020) FASEB J. 34(4):5838-5850; Chen, et al. (2015) Ann. Rheum. Dis. 74:1898-1906).

Another data set deals with cell viability. Put plainly: Cell viability. It is filed as cell-based.
Data set [5] deals with T2, CCR10-eNOS interaction (Homo sapiens, UniProt P46092).
T2 construct: host or cells: HUVEC (primary human umbilical vein endothelial cells)
T2 sequence (P46092 1-362): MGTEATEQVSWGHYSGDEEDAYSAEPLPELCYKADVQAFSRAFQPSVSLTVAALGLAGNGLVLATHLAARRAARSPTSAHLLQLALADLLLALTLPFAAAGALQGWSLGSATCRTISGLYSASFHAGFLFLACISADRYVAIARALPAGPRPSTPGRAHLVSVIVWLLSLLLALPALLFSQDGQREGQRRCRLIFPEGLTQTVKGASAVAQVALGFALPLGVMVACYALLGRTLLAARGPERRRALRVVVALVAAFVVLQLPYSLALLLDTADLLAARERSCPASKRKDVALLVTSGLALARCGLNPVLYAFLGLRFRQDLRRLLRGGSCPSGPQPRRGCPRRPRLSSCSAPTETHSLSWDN
In words: Co-IP of CCR10-eNOS interaction in HUVECs stimulated with A23187. Conditions: endothelial cells (HUVECs), pretreatment 50 μM, 5 μM A23187 for 5 minutes, vs control peptide. In kind it is cell-based. The method, then: as §1, §2
Therefore, the effect of inhibition of CCR10-eNOS interaction was investigated using a panel of cell-permeable peptides based on the sequence of the predicted interaction domain on eNOS. Similar peptides have been described in determining the solution structure of calmodulin bound to the target peptide of eNOS (Piazza, et al. (2014) Biochemistry 53(8):1241-9; Piazza, et al. (2016) Biochemistry 55(42):5962-71). First, myristoylated 20 amino acid peptide (491-[…]-510 (P1); SEQ ID NO:61) was synthesized based on the sequence of human eNOS (which is conserved in mouse eNOS). […] It was subsequently determined whether truncated versions of the CBD-derived peptide would have the same effect.

Peptide text beside a SMILES is read from it. * marks the point of attachment. Myristoyl = CCCCCCCCCCCCCC(=O)*

On to `CCCCCCCCCCCCCC(=O)N[C@@H](CCCCN)C(=O)N[C@H](C(=O)N[C@@H](CO)C(=O)N[C@@H](C)C(=O)N[C@@H](CO)C(=O)N[C@@H](CC(C)C)C(=O)N[C@@H](CCSC)C(=O)O)[C@@H](C)CC` [Myr-CBD7, myr-KISASLM] (Myristoyl-KISASLM-OH), for which the “level of CCR10” value in data set [1] (day 3, compared to control peptide) is on record as “reduced”. Besides, in data set [1] (day 3 wounds), the “mRNA level of IL-6” value was “reduced”. In data set [1] (day 3 wounds, ELISA), the “protein level of CCL28” value was “significantly reduced”, the “protein level of IL-6” value is listed as “significantly reduced” and the “protein level of TNF-α” value is “significantly reduced”. Besides, in data set [1] (day 12 wounds), the “level of EC marker CD31” value was “elevated”, the “level of EC marker Flk-1” value is given as “elevated”, the “level of EC marker VE-cadherin” value was “elevated” and the “level of EC marker eNOS” value is “elevated”. Besides, in data set [1] (day 12 wounds), the “level of IL-4” value is “elevated”, the “level of IL-13” value is on record as “elevated” and the “level of VEGF” value is “elevated”. For the same compound, the “eNOS expression in wounds” value in the data set on eNOS [2] was “significantly elevated”. In addition, the “eNOS phosphorylation (Ser1177)” value with eNOS [3] is reported as “significantly enhanced”. The “CCR10-eNOS interaction in wounds (Co-IP)” value at CCR10-eNOS interaction [4] is listed as “reduced”. Besides, the “concentration without adversely affecting cell viability” value in the data set on cell viability was “up to 100 μM”. The “CCR10-eNOS interaction (Co-IP)” value on CCR10-eNOS interaction [5] is “significant reduction”. Further, the “CCR10-eNOS interaction (Co-IP)” value at CCR10-eNOS interaction [5] (listed as P4) is on record as “completely blocked”.
